The results in this text go back to PubChem BioAssay (NCI).

SMILES strings stand for the structures. Values joined by “and” are separate entries in the source; they are usually repeats but may differ in a detail not shown here. Identical values can stand only once.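 Five concentrations, 48 hours, 96-well plates. GI50: concentration for 50% inhibition of growth. TGI: total growth inhibition.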

Test systems include SNB-19 CNS; NCI-H226 lung; UACC-62 melanoma; OVCAR-8 ovarian; CCRF-CEM leukemia; HL-60(TB) leukemia; DLD-1 colon; HCT-116 colon; DMS 273 small cell lung; SF-268 CNS.
Assay in all cases: NCI-60 cell line screen, 48 h

Consider `O=c1cc(-c2ccccn2)[nH]c2cccc(F)c12`, for which the TGI in the experiment on SNB-19 CNS, in the experiment with NCI-H226 lung, with UACC-62 melanoma, with OVCAR-8 ovarian, in the experiment with CCRF-CEM leukemia and with HL-60(TB) leukemia was more than 100 µM throughout. In the experiment on DLD-1 colon, the TGI was more than 100 µM.
As for `Cc1cc2c(c(C(N)=O)c1C)-c1cccc(F)c1C2=O`, the TGI in the experiment on HCT-116 colon, in the experiment on SNB-19 CNS, in the experiment with UACC-62 melanoma, in the experiment with DMS 273 small cell lung, with OVCAR-8 ovarian and in the experiment on SF-268 CNS was more than 100 µM in each case. The TGI in the experiment with CCRF-CEM leukemia and in the experiment on DLD-1 colon was more than 100 µM in each case.
`CCOC(=O)NC(=O)c1cn(CCN2CCN(C(=O)CNC(=O)CNC(=O)Cn3cc(C(=O)NC(=O)OCC)c(=O)[nH]c3=O)CC2)c(=O)[nH]c1=O`: the TGI in the experiment with HCT-116 colon, with SNB-19 CNS, with UACC-62 melanoma, with DMS 273 small cell lung, with OVCAR-8 ovarian and with SF-268 CNS was more than 100 µM throughout. For the same compound, the TGI with CCRF-CEM leukemia, in the experiment on HL-60(TB) leukemia and in the experiment with DLD-1 colon was more than 100 µM throughout.
As to `CC(C)/C=C1\CCC(CN2CCOCC2)C1=O` (configuration not stated), the TGI with HCT-116 colon was 23.4 µM; in the experiment on SNB-19 CNS, more than 100 µM; in the experiment on NCI-H226 lung it was 94.8 µM; in the experiment with UACC-62 melanoma, 36.3 µM; with OVCAR-8 ovarian, more than 40.8 µM; in the experiment with SF-268 CNS, 52.5 µM. For the same compound, the TGI with CCRF-CEM leukemia stood at 9.51 µM; with HL-60(TB) leukemia it was 5.58 µM; in the experiment on DLD-1 colon, 8.86 µM.
With `CCCCNNC(=O)c1ccc(Br)cc1`, the GI50 is 1.47 µM in the experiment on HCT-116 colon; 11.2 µM in the experiment with SNB-19 CNS; 9.86 µM in the experiment on NCI-H226 lung; 1.3 µM with UACC-62 melanoma; 1.5 µM in the experiment with OVCAR-8 ovarian; 8.41 µM in the experiment with SF-268 CNS. Also, the values for the GI50 with CCRF-CEM leukemia and with HL-60(TB) leukemia were 2.46 µM and 2.24 µM, respectively. Besides, the TGI in the experiment on HCT-116 colon was 13.4 µM; in the experiment on SNB-19 CNS, more than 50 µM; in the experiment on NCI-H226 lung, more than 50 µM; in the experiment on UACC-62 melanoma it was 7.51 µM; in the experiment on OVCAR-8 ovarian, more than 50 µM; in the experiment with SF-268 CNS it was more than 50 µM. For the same compound, the TGI in the experiment on CCRF-CEM leukemia and in the experiment with HL-60(TB) leukemia was more than 50 µM throughout.
As for `CCC1(O)CC(OC2CC(N(C)C)C(OC3CC(O)C(OC4OC(C)C(=O)C=C4N)C(C)O3)C(C)O2)c2c(cc3c(c2O)C(=O)c2c(O)cccc2C3=O)C1C(=O)OC` (configuration not stated), the TGI with HCT-116 colon is 1.79 µM; in the experiment with SNB-19 CNS, 2.05 µM; in the experiment with NCI-H226 lung it was 0.347 µM and 0.0894 µM; with UACC-62 melanoma it was 0.17 µM and 0.0324 µM; in the experiment with OVCAR-8 ovarian, 1.59 µM and 1.32 µM; in the experiment on SF-268 CNS, 2.89 µM and 1.38 µM. Also, the TGI in the experiment on CCRF-CEM leukemia was 0.131 µM and 0.818 µM; in the experiment with HL-60(TB) leukemia it was 0.5 µM and 0.079 µM. In addition, the GI50 was 0.0161 µM in the experiment with NCI-H226 lung and 0.0127 µM in the experiment with SF-268 CNS.
As to `CCOc1ccc2c(-c3ccnc(Nc4cc(OC)cc(C(F)(F)F)c4)n3)cnn2n1`, the GI50 is 6.42 µM in the experiment on HCT-116 colon; more than 25 µM with SNB-19 CNS; more than 25 µM with NCI-H226 lung; more than 10.9 µM in the experiment with UACC-62 melanoma; more than 15.4 µM with OVCAR-8 ovarian; more than 18.9 µM in the experiment on SF-268 CNS. Besides, the GI50 in the experiment with CCRF-CEM leukemia and in the experiment on HL-60(TB) leukemia was more than 25 µM throughout. Moreover, the TGI in the experiment on HCT-116 colon, in the experiment with SNB-19 CNS, with NCI-H226 lung, with UACC-62 melanoma, in the experiment with OVCAR-8 ovarian and with SF-268 CNS was more than 25 µM in each case. The TGI in the experiment on CCRF-CEM leukemia and with HL-60(TB) leukemia was more than 25 µM each time.
On to `N#Cc1nc(-c2ccc(F)cc2)oc1S(=O)(=O)N1CCCCC1`, for which the GI50 in the experiment on HCT-116 colon was 1.79 µM; in the experiment with SNB-19 CNS it was 11 µM; with NCI-H226 lung, 19.1 µM; in the experiment on UACC-62 melanoma, 1.62 µM; in the experiment with OVCAR-8 ovarian, 3.19 µM; in the experiment with SF-268 CNS it was 2.23 µM. Moreover, the figures for the GI50 with CCRF-CEM leukemia and with HL-60(TB) leukemia were 0.954 µM and 2.54 µM, respectively. Further, the TGI in the experiment with HCT-116 colon was found to be 3.54 µM; in the experiment on SNB-19 CNS, 23 µM; in the experiment on NCI-H226 lung, 42.1 µM; in the experiment with UACC-62 melanoma, 3.01 µM; with OVCAR-8 ovarian, 24.1 µM; in the experiment with SF-268 CNS it was 6.23 µM. The figures for the TGI with CCRF-CEM leukemia and with HL-60(TB) leukemia were more than 100 µM and 7.02 µM, respectively.
With `Cc1ccc(/C=C(\C#N)c2cc3ccccc3n2C)cc1`, the GI50 with HCT-116 colon was 0.361 µM; in the experiment with SNB-19 CNS it was 0.414 µM; in the experiment on NCI-H226 lung it was 1.45 µM; with UACC-62 melanoma it was 0.278 µM; in the experiment on OVCAR-8 ovarian, 0.565 µM; with SF-268 CNS it was 8.27 µM. Moreover, the figures for the GI50 in the experiment on CCRF-CEM leukemia and in the experiment with HL-60(TB) leukemia were 0.355 µM and 0.277 µM, respectively. Further, the TGI in the experiment with HCT-116 colon, in the experiment with SNB-19 CNS, with NCI-H226 lung, in the experiment with UACC-62 melanoma, with OVCAR-8 ovarian and in the experiment with SF-268 CNS was more than 100 µM each time. The TGI was more than 100 µM in the experiment with CCRF-CEM leukemia and 2.56 µM in the experiment with HL-60(TB) leukemia.
